Test results taken from the OligoGym collection.
These antisense oligonucleotides have a phosphorothioate backbone; sugars and methylation of C are not fully specified.
Further: test concentration or dose not given here.

Settings: ASO
In the case of CTGCTGTATCATTTTCTT, the remaining target (mRNA or protein) (fraction of control) is reported as ≥ 1.
Sequence TGCTGTCACTCACGCACTCG has a remaining target (mRNA or protein) (fraction of control) of 0.57.
In the case of TTTCTATCGTTGAGTTTCTG, the remaining target (mRNA or protein) (fraction of control) is reported as ≥ 1.
For TGCGCTCCTCCTCCGAGT, the remaining target (mRNA or protein) (fraction of control) was ≥ 1.
For ACCACAGAACTGAAGGTT, the remaining target (mRNA or protein) (fraction of control) was ≥ 1.
For GGTAGGTCGTAGAAGATG, the remaining target (mRNA or protein) (fraction of control) was ≥ 1.
CTGAAAGTGACAGTGTTT gave a remaining target (mRNA or protein) (fraction of control) of 0.79.
With TTCAATGGCTTCCACGAG the remaining target (mRNA or protein) (fraction of control) was 0.94.
In the case of CAAAGCGCTTAACTACAT, the remaining target (mRNA or protein) (fraction of control) is reported as ≥ 1.
With AAATAGGTAGCCAGGTGG the remaining target (mRNA or protein) (fraction of control) was 0.99.
Sequence CTCATCCGGATAGTACACAT has a remaining target (mRNA or protein) (fraction of control) of 0.64.
TTCTGTGTGTCTGTGGCA gave a remaining target (mRNA or protein) (fraction of control) of 0.19.
In the case of CCCAGGCGGAGGTCGGCG, the remaining target (mRNA or protein) (fraction of control) is reported as ≥ 1.
With GCTTGAAGAAATGTTTTA the remaining target (mRNA or protein) (fraction of control) was ≥ 1.
CGGCTGAATCGAGCAGGT showed a remaining target (mRNA or protein) (fraction of control) of 0.93.
CAGCACCCCAACCCTTAACA gave a remaining target (mRNA or protein) (fraction of control) of 0.47.
In the case of TGAAGATGAATCTCAATCCA, the remaining target (mRNA or protein) (fraction of control) is reported as 0.88.
For AGGTAGTACACGGCTGAA, the remaining target (mRNA or protein) (fraction of control) was 0.28.
GACGTGCCTTTCTGCTAC showed a remaining target (mRNA or protein) (fraction of control) of 0.72.
CATAAGAGGCCACAGCAGGC gave a remaining target (mRNA or protein) (fraction of control) of 0.41.
Work on CACCTGCAGCCGCCCGTCCA yielded a remaining target (mRNA or protein) (fraction of control) of 0.55.
Work on CTTTACTTCGCCGTCCAC yielded a remaining target (mRNA or protein) (fraction of control) of 0.59.
For CGCTCCGAAAAGAGACAG, the remaining target (mRNA or protein) (fraction of control) was 0.87.
With TTGGTATCGATAGCACTACA the remaining target (mRNA or protein) (fraction of control) was 0.96.
In the case of GTAGATGAGGGCGATCAC, the remaining target (mRNA or protein) (fraction of control) is reported as ≥ 1.
For GACTTCCTTGCCTGAAAC, the remaining target (mRNA or protein) (fraction of control) was ≥ 1.
In the case of TCCCAGGGTGTGCGTCAC, the remaining target (mRNA or protein) (fraction of control) is reported as ≥ 1.
GGGAGTTGACGAAGATGG showed a remaining target (mRNA or protein) (fraction of control) of 0.96.
CCACCGCCGCCGCCGCTG gave a remaining target (mRNA or protein) (fraction of control) of 0.62.
With TAGATGCACTTGGAGCGA the remaining target (mRNA or protein) (fraction of control) was ≥ 1.
AAAGAAGGGATAAGCACT gave a remaining target (mRNA or protein) (fraction of control) of 0.93.
For TTATAAGCCAAAGTGCGT, the remaining target (mRNA or protein) (fraction of control) was ≥ 1.
In the case of TCCATTTCTTACGCTCTG, the remaining target (mRNA or protein) (fraction of control) is reported as ≥ 1.
AGAGGCAGAGAAGAGAGC gave a remaining target (mRNA or protein) (fraction of control) of 0.93.
ATTTCTCTCGTCCGCAAA gave a remaining target (mRNA or protein) (fraction of control) of 0.34.
With AGCTCGCGCGAACCCCTA the remaining target (mRNA or protein) (fraction of control) was ≥ 1.
With CCACTAGAGTGCGCCAGA the remaining target (mRNA or protein) (fraction of control) was ≥ 1.
In the case of CTGCCTCTCTCTCCTCCG, the remaining target (mRNA or protein) (fraction of control) is reported as ≥ 1.
With ATTCTCCCAAAGCGTCCC the remaining target (mRNA or protein) (fraction of control) was 0.81.
In the case of CCGTGGATGATCCGCATC, the remaining target (mRNA or protein) (fraction of control) is reported as ≥ 1.
GTGGAGTGCATAAGAGGCCA showed a remaining target (mRNA or protein) (fraction of control) of 0.84.
In the case of GAGTTGGTAGCCTCCGTT, the remaining target (mRNA or protein) (fraction of control) is reported as ≥ 1.
With GCCCTTTGCTTTCCAGAG the remaining target (mRNA or protein) (fraction of control) was ≥ 1.
CCAACAAAACAGTCCAAA gave a remaining target (mRNA or protein) (fraction of control) of 0.94.
With GCCCGCACGGAGCCCTGC the remaining target (mRNA or protein) (fraction of control) was 0.81.
With AAATGGCCGTTTTGCTCC the remaining target (mRNA or protein) (fraction of control) was ≥ 1.
For TTGCTCTCGGGCCTGCTG, the remaining target (mRNA or protein) (fraction of control) was 0.21.
For GCACAGCCTGTCTTCAAA, the remaining target (mRNA or protein) (fraction of control) was ≥ 1.
With GGATCCTGTTGATCTCCT the remaining target (mRNA or protein) (fraction of control) was ≥ 1.
With TGGGGGTGGTGGAGTGCATA the remaining target (mRNA or protein) (fraction of control) was 0.53.
Work on CTTAAGACATGACTGTTAAG yielded a remaining target (mRNA or protein) (fraction of control) of 0.89.
With CAGCGAGTACGTGACGGT the remaining target (mRNA or protein) (fraction of control) was 0.93.
Sequence TCATGGCCCGCATGGACA has a remaining target (mRNA or protein) (fraction of control) of 0.7.
Sequence TCTCCTTCATGCGGTTCT has a remaining target (mRNA or protein) (fraction of control) of 0.61.
With GGCGGCCTTCTCATCCTC the remaining target (mRNA or protein) (fraction of control) was 0.96.
